According to article PMC5596814 (The Journal of Pharmacology and Experimental Therapeutics, 2017):

Tests used:
[1] = parameters: method as in Narasimhan et al., 2013; settings: ref Narasimhan et al., 2013, cited from earlier work
[2] = human; cited from earlier work
[3] = WT mice treated with TCDD versus vehicle
[4] = in vivo; settings: male, mouse, plasma, po, 40 mg/kg, ponatinib 40 mg/kg oral gavage; for Cmax: WT mice
[5] = cited from earlier work
[6] = in vivo; settings: for Cmax / half-life: male, hCYP1A1/1A2 humanized, mouse, in vivo, po, 40 mg/kg, ponatinib 40 mg/kg oral gavage; for Cmax: hCYP1A1/1A2 mice; for half-life: t1/2, hCYP1A1/1A2 mice
Protocol: All animal work was carried out on 8- to 12-week-old male mice. 3-Methylcholanthrene (3-MC) was suspended in corn oil at 4 mg/ml for administration by intraperitoneal injection at 40 mg/kg (10 μl/g body weight) daily for 3 days for hCYP1A1/2 mice. TCDD was suspended in corn oil at 1 µg/ml for administration by intraperitoneal injection at 10 µg/kg (10 μl/g body weight) daily for 3 days for wild-type (WT) mice. […] For blood sample collection, 10 μl of whole blood was withdrawn from the tail vein at the indicated time points. Samples were immediately added to a tube containing heparin solution (10 μl, 15 IU/ml), put into liquid nitrogen, and then stored at −80°C until processing. On the day of analysis, acetonitrile (80 µl containing 200 ng/ml triazolam) was added to thawed samples, which were shaken for 15 minutes, centrifuged for 10 minutes at 16,000g, and analyzed. […] An aliquot of 0.25 g was extracted with 1 ml of 80% methanol for 30 minutes on a vortex evaporator (Labconco, Kansas City, MO). After centrifugation (30 minutes at 4000g), the solvent of a 800 μl aliquot of the supernatant was removed by speed vacuum, followed by reconstitution in 500 μl methanol and water (50/50, v/v), and analyzed by LC-MRM.
Analysis of in vitro incubation and in vivo blood PK samples was carried out by ultra-performance LC-MS/MS using the Waters Acquity UPLC (Micromass, Manchester, United Kingdom) and Micromass Quattro Premier Mass Spectrometer with electrospray ionization. The chromatography was performed using a C18 column (Kinetex 1.7 µ 100 A; 50 × 2.1 mm; Phenomenex, Macclesfield, United Kingdom) at a temperature of 45°C with mobile phases of 0.1% formic acid (A) and acetonitrile and 0.1% formic acid (B). A gradient at a flow rate of 0.5 ml/min was run over 3 minutes as follows: 0–0.5 minutes, 95% A; 0.5–0.75 minutes, 95%–67.5% A; 0.75–1.50 minutes, 67.5% A, 1.50–2.00 minutes, 67.5%–50% A; 2.00–2.50 minutes, 50%–5% A; and then returning to the initial conditions for a final 0.5 minutes. The cone voltage and collision energy were optimized for each substrate and MRM data were acquired (Supplemental Table 1).
In the present study, the absolute concentrations of the metabolites in the incubation mixture could not be determined because of the lack of authentic standards. Therefore, the relative activity of the P450s was presented by comparing the concentration of the metabolite in a sample with the concentration of the same metabolite in the sample that had the highest response under the same experimental condition ([Yu et al., 2010]). The relative activity of the P450s toward metabolite formation could be calculated according to the ratio of the metabolite concentration to that in the sample with highest mass response. The PK parameters of in vivo data were calculated with a simple noncompartmental model using the WinNonLin software, version 4.1 (Pharsight (Certara, Cambridge, UK)) and are shown with the S.D. values. The P values were calculated using an unpaired t test; *P < 0.05, **P < 0.01, ***P < 0.001.

[7] = concurrent therapy with ketoconazole (a CYP3A4 inhibitor), ref Narasimhan et al., 2013; cited from earlier work
[8] = test system: human recombinant P450 enzymes; assay: Ponatinib biotransformation by panel of 11 human recombinant P450 enzymes; format: in vitro ADME; settings: ponatinib 50 µM, P450 100 nM, panel of 11 enzymes
Protocol: All incubations were performed at 37°C and 300 rpm in a thermomixer. Human cDNA-expressed P450 isoenzymes coexpressed with human NADPH P450 oxidoreductase (see Supplemental Fig. 1 for CYP:oxidoreductase ratio data) were carefully thawed on ice prior to the experiment. […] After 5-minute preincubation at 37°C, the incubation reactions were initiated by addition of a NADPH regenerating system (final concentration: 1.3 mM NADPH, 4 mM glucose-6-phosphate, and 2 unit/ml glucose-6-phosphate dehydrogenase). After 5–120 minutes, an aliquot of 100 µl of reaction mixture was quenched with same volume of cold acetonitrile containing 400 ng/ml of triazolam as the internal standard. […] An aliquot of the supernatant fraction was analyzed by liquid chromatography (LC)–tandem mass spectrometry (MS), i.e., LC-MS/MS. […]
In the present study, the absolute concentrations of the metabolites in the incubation mixture could not be determined because of the lack of authentic standards. […] The relative activity of the P450s toward metabolite formation could be calculated according to the ratio of the metabolite concentration to that in the sample with highest mass response. The PK parameters of in vivo data were calculated with a simple noncompartmental model using the WinNonLin software, version 4.1 (Pharsight (Certara, Cambridge, UK)) and are shown with the S.D. values. […]

[9] = target: T1, mGstp1 (Mus musculus, UniProt P19157); assay: Protein adducts of ponatinib with mGstp1 in the presence of human recombinant CYP1A1 (LC-MS/MS of tryptic digests); format: in vitro ADME; settings: ponatinib 50 µM, CYP1A1, 10 µg/ml mGstp1, 80 minutes
T1 construct: made in house
T1 sequence (P19157 2-210 limits assumed): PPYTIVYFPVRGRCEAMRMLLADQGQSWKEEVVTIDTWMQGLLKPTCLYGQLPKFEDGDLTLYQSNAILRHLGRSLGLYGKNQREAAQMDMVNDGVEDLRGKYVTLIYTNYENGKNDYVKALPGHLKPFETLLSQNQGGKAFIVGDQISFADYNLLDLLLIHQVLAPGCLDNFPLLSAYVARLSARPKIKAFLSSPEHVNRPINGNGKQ
Protocol: The incubation was started by the addition of a NADPH-regenerating system (final concentration: 1.3 mM NADPH, 4 mM glucose-6-phosophate, 2 U/ml glucose-6-phosphate dehydrogenase, and 3.3 mM […]) and allowed to proceed at 37°C for 80 minutes. The reaction was terminated by cooling on ice, and the E. coli membrane containing human recombinant CYP1A1 was removed by ultracentrifugation at 41,000g at 4°C for 80 minutes. […] The solvent was exchanged to 50 mM ammonium bicarbonate and further concentrated to 100 µl.
Aliquots of the solution (10 µl) were mixed with 10 μl of 4× NuPAGE lithium dodecyl sulfate loading buffer (Invitrogen, Carsbad, CA) by incubation at 95°C for 5 minutes and then subjected to SDS-PAGE on a NuPAGE Novex 10% Bis-Tris mini gel (Invitrogen NP0341BOX). After electrophoresis at a constant 180 V for 30 minutes, gels were stained with Coomassie Blue. Bands (20–25 kDa) containing mGstp1 were cut from the gel, and after removing the Coomassie Blue from the gel by adding 100 mM ammonium bicarbonate/acetonitrile (1:1, v/v) and subsequently dehydrating with 100% acetonitrile, the solvent was removed from the gel pieces under vacuum. The residue was resuspended in 0.01 μg/μl MS grade trypsin (Promega, Madison, WI) in 25 mM ammonium bicarbonate and incubated at 37°C overnight. […]

[10] = ponatinib treatment, ref Cortes et al., 2012
[11] = hCYP1A1/1A2 mice treated with 3-MC versus vehicle
[12] = 3-MC pretreatment (40 mg/kg i.p. daily for 3 days)

## Cc1ccc(C(=O)Nc2ccc(CN3CCNCC3)c(C(F)(F)F)c2)cc1C#Cc1cnc2cccnn12 [N-desmethyl]
[1]
  potency relative to ponatinib (fold less potent): 4 fold

## Cc1ccc(C(=O)Nc2ccc(CN3CCN(C)CC3)c(C(F)(F)F)c2)cc1C#Cc1cnc2cccnn12 [ponatinib, 3-[2-(imidazo[1,2-b]pyridazin-3-yl)ethynyl]-4-methyl-N-4-[(4-methylpiperazin-1-yl)methyl]-3-(trifluoromethyl)phenylbenzamide]
[2]
  plasma half-life (t1/2): ~24 h
[3]
  decrease in the ponatinib half-life: 62%
  reduction in the AUC0–8 hours value: 87%
[4]; TCDD pretreatment (10 µg/kg i.p. daily for 3 days)
  Cmax: 0.253 ± 0.042 µg/mL
[4]; vehicle pretreatment
  Cmax: 1.21 µg/mL
[4]; t1/2, WT mice, vehicle pretreatment
  half-life: 6.2 ± 0.2 h
[5]; clinical trials
  alanine aminotransferase elevation, patients in clinical trials: 10.5%
  aspartate aminotransferase elevation, patients in clinical trials: 8.2%
[5]; [10]
  neutropenia, patients: 19%
  thrombocytopenia, patients: 37%
[6]; [11]
  reduction in AUC0–8 hours: 54%
  reduction in half-life: 67%
[6]; [12]
  Cmax: 0.62 ± 0.245 µg/mL
  half-life: 4.6 ± 0.8 h
[6]; vehicle pretreatment
  Cmax: 0.705 ± 0.096 µg/mL
  half-life: 13.9 ± 1.7 h
[7]
  change of ponatinib AUC0–∞, AUC0–t and Cmax values: significantly increased
[8]
  P450 enzymes metabolizing ponatinib, disappearance of the parent drug: principally metabolized via CYP3A4 and CYP1A1
[9]
  covalent ponatinib adducts on mGstp1 cysteine residues: ponatinib-Gstp adducts had been formed on Cys-14 and Cys-47

## Cc1ccc(C(=O)O)cc1C#Cc1cnc2cccnn12 [AP24600]
[1]; esterase/amidase product
  activity of metabolite: inactive
